Test: recombinant barcode read abundance after kanamycin selection (control-corrected) (log10(CPM+1)); higher = more efficient recombination; sequences stand for … in AGTGCAGAGAAAATCGGCCAGTTTTCTCTGCCTGCAGTCCGCATGCCGT…AGATTTATGCAGCGGACTGCCTTTCTCCCAAAGTGATAAACCGGACAGTATCATGGACCGGTTTTCCCGGTAATCCGTATTTGCAAGGTTGGTTTCACT; site = the 11-nt target
In short: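 In E. coli, a pooled library matched targets to IS621 bridge RNA target-binding loops and was introduced alongside a donor plasmid. Cells went onto chloramphenicol/ampicillin/kanamycin with 0.1 mM IPTG or onto chloramphenicol/ampicillin LB agar as control, in duplicate. Recombination efficiency, from recombinant-junction barcodes as counts per million, is averaged and control-corrected. It is reported as log10(CPM+1).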
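Also: IS621 recombinase and bridge RNA in Escherichia coli cells.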

Row | Sequence | recombinant barcode read abundance (log10)
1 | TGCGACCCTTGGGTTCTAACCTGTTGCTT (site TGGGACCCTAT) | 0.312
2 | TGCGACTCTTGGGTTCTAACCTGTTGCCT (site TGAGACTCTAG) | 1.47
3 | TGCGACTCTTGGGTTCTAACCTGTTGCCT (site TGCGACTCTAG) | 1.5
4 | TGCGACTCTTGGGTTCTAACCTGTTGCCT (site TGGGACTCTAG) | 0.0561
5 | TGCGACTCTTGGGTTCTAACCTGTTGCCT (site TGTGACTCTAG) | 0.0576
6 | TGCGTAACTTGGGTTCTAACCTGTTGCCA (site GAACCTCCTAT) | 0.0676
7 | TGCGTAACTTGGGTTCTAACCTGTTGCCA (site TGCGTAACTTG) | 0.104
8 | TGCTCTACTTGGGTTCTAACCTGTTGCTG (site TGCTCTACTCA) | 0.00915
9 | TGCTCTACTTGGGTTCTAACCTGTTGCTG (site TGTTCTACTCG) | 0.114
10 | TGGACTTCTTGGGTTCTAACCTGTTGCTT (site TGGAATTCTAA) | 0.0677
11 | TGGACTTCTTGGGTTCTAACCTGTTGCTT (site TGGACTTCTAA) | 0.0981
12 | TGGAGCCCTTGGGTTCTAACCTGTTGCTT (site TGGAGCCCTAA) | 0.463
13 | TGGAGCCCTTGGGTTCTAACCTGTTGCTT (site TGGAGTCCTAA) | 0.136
14 | TGGAGTACTTGGGTTCTAACCTGTTGCTT (site TGGAGTACTAA) | 1.02
15 | TGGAGTACTTGGGTTCTAACCTGTTGCTT (site TGTAGTACTAG) | 0.0535
16 | TGGATTCCTTGGGTTCTAACCTGTTGCCT (site TGGATTCCTAG) | 0.223
17 | TGGATTCCTTGGGTTCTAACCTGTTGCCT (site TGGATTGCTAG) | 0.392
18 | TGGCAATCTTGGGTTCTAACCTGTTGCCT (site ACCTCGGCTCA) | 0.556
19 | TGGCAATCTTGGGTTCTAACCTGTTGCCT (site TGGCAATCTAG) | 0.257
20 | TGGCCCTCTTGGGTTCTAACCTGTTGCTA (site TGGCCCTCTAA) | 1.1
21 | TGGCCCTCTTGGGTTCTAACCTGTTGCTA (site TGGCCCTCTCA) | 0.0705
22 | TGGCCCTCTTGGGTTCTAACCTGTTGCTA (site TGGCCCTCTGA) | 0.0109

Row | Sequence | recombinant barcode read abundance (log10)
23 | TGGCCCTCTTGGGTTCTAACCTGTTGCTA (site TGGCCCTCTTA) | 2.03
24 | TGGCCCTCTTGGGTTCTAACCTGTTGCTG (site TGGCCCTCTAA) | 0.784
25 | TGGCCCTCTTGGGTTCTAACCTGTTGCTG (site TGGCCCTCTCA) | 2.31
26 | TGGCCCTCTTGGGTTCTAACCTGTTGCTG (site TGGCCCTCTGA) | 0.0444
27 | TGGCCCTCTTGGGTTCTAACCTGTTGCTG (site TGGCCCTCTTA) | 0.111
28 | TGGCCTTCTTGGGTTCTAACCTGTTGCCT (site TAGCCTTCTAG) | 0.0963
29 | TGGCCTTCTTGGGTTCTAACCTGTTGCCT (site TCGCCTTCTAG) | 0.0688
30 | TGGCCTTCTTGGGTTCTAACCTGTTGCCT (site TGGCCTTCTAG) | 0.781
31 | TGGCCTTCTTGGGTTCTAACCTGTTGCCT (site TTGCCTTCTAG) | 0.0528
32 | TGGCGAGCTTGGGTTCTAACCTGTTGCCT (site TGGCCTGCTAG) | 0.152
33 | TGGCGAGCTTGGGTTCTAACCTGTTGCCT (site TGGCGAGCTAG) | 1.02
34 | TGGCGCTCTTGGGTTCTAACCTGTTGCCT (site TGACGCTCTAG) | 0.855
35 | TGGCGCTCTTGGGTTCTAACCTGTTGCCT (site TGCCGCTCTAG) | 0
36 | TGGCGCTCTTGGGTTCTAACCTGTTGCCT (site TGGCGCTCTAG) | 0.457
37 | TGGCGCTCTTGGGTTCTAACCTGTTGCCT (site TGTCGCTCTAG) | 0.0369
38 | TGGCTATCTTGGGTTCTAACCTGTTGCCT (site CGGCTATCTAG) | 0.00906
39 | TGGCTATCTTGGGTTCTAACCTGTTGCCT (site TGGCTATCTAG) | 0.187
40 | TGGCTCCCTTGGGTTCTAACCTGTTGCCG (site TGGCTCCCTCC) | 0.077
41 | TGGCTCCCTTGGGTTCTAACCTGTTGCCG (site TGGCTCCCTCG) | 1.35
42 | TGGCTCCCTTGGGTTCTAACCTGTTGCGG (site TGGCTCCCTCC) | 0.188
43 | TGGCTCCCTTGGGTTCTAACCTGTTGCGG (site TGGCTCCCTCG) | 0.12
44 | TGGGACTCTTGGGTTCTAACCTGTTGCCA (site TCGGACACTTG) | 0.328

Row | Sequence | recombinant barcode read abundance (log10)
45 | TGGGACTCTTGGGTTCTAACCTGTTGCCA (site TGGGACTCTTG) | 2.29
46 | TGGGATCCTTGGGTTCTAACCTGTTGCAT (site AGGGGTCCTAT) | 0.0813
47 | TGGGATCCTTGGGTTCTAACCTGTTGCAT (site TGGGATCCTAT) | 1.73
48 | TGGGGCCCTTGGGTTCTAACCTGTTGCCT (site TGGGGCCCTAG) | 1.66
49 | TGGGGCCCTTGGGTTCTAACCTGTTGCCT (site TGGTGCCCTAC) | 0.156
50 | TGGGGTCCTTGGGTTCTAACCTGTTGCCT (site TGGAGTCCTAG) | 1.52
51 | TGGGGTCCTTGGGTTCTAACCTGTTGCCT (site TGGCGTCCTAG) | 0.0786
52 | TGGGGTCCTTGGGTTCTAACCTGTTGCCT (site TGGGGTCCTAG) | 2.33
53 | TGGGGTCCTTGGGTTCTAACCTGTTGCCT (site TGGTGTCCTAG) | 0.217
54 | TGGGTCCCTTGGGTTCTAACCTGTTGCCT (site TGAGTCCCTAG) | 2.14
55 | TGGGTCCCTTGGGTTCTAACCTGTTGCCT (site TGCGTCCCTAG) | 0.102
56 | TGGGTCCCTTGGGTTCTAACCTGTTGCCT (site TGGGTCCCTAG) | 3
57 | TGGGTCCCTTGGGTTCTAACCTGTTGCCT (site TGTGTCCCTAG) | 0.0764
58 | TGGTACCCTTGGGTTCTAACCTGTTGCCT (site TGGTACCCTAG) | 1.64
59 | TGGTACCCTTGGGTTCTAACCTGTTGCCT (site TGTTACCCTAG) | 0.126
60 | TGGTATTCTTGGGTTCTAACCTGTTGCCT (site TGGTATACTAG) | 0.0539
61 | TGGTATTCTTGGGTTCTAACCTGTTGCCT (site TGGTATCCTAG) | 0.113
62 | TGGTATTCTTGGGTTCTAACCTGTTGCCT (site TGGTATGCTAG) | 0.11
63 | TGGTATTCTTGGGTTCTAACCTGTTGCCT (site TGGTATTCTAG) | 0.373
64 | TGGTCCGCTTGGGTTCTAACCTGTTGCCT (site TGGTACGCTAG) | 0.257
65 | TGGTCCGCTTGGGTTCTAACCTGTTGCCT (site TGGTCCGCTAG) | 1.58
66 | TGGTCCGCTTGGGTTCTAACCTGTTGCCT (site TGGTGCGCTAG) | 0.0483

Row | Sequence | recombinant barcode read abundance (log10)
67 | TGGTCCGCTTGGGTTCTAACCTGTTGCCT (site TGGTTCGCTAG) | 0.243
68 | TGGTGCCCTTGGGTTCTAACCTGTTGCGT (site TGGGGCCCTAG) | 0.122
69 | TGGTGCCCTTGGGTTCTAACCTGTTGCGT (site TGGTGCCCTAC) | 1.83
70 | TGGTTACCTTGGGTTCTAACCTGTTGCCT (site TGGTTACCTAG) | 1.17
71 | TGGTTACCTTGGGTTCTAACCTGTTGCCT (site TGTTTAACTAG) | 0.0377
72 | TGTACGTCTTGGGTTCTAACCTGTTGCTT (site TGTACGACTAG) | 0.0847
73 | TGTACGTCTTGGGTTCTAACCTGTTGCTT (site TGTACGTCTAA) | 0.326
74 | TGTAGAGCTTGGGTTCTAACCTGTTGCAG (site TGTAGAGCTCT) | 0.872
75 | TGTAGAGCTTGGGTTCTAACCTGTTGCAG (site TGTTGAGCTCT) | 0.0298
76 | TGTAGCACTTGGGTTCTAACCTGTTGCAC (site TGTAGCACTGT) | 0.0233
77 | TGTAGCACTTGGGTTCTAACCTGTTGCAC (site TGTCGCACTCT) | 0.159
78 | TGTAGTCCTTGGGTTCTAACCTGTTGCAT (site TGTAGTCCTAA) | 0.232
79 | TGTAGTCCTTGGGTTCTAACCTGTTGCAT (site TGTAGTCCTAC) | 0.0299
80 | TGTAGTCCTTGGGTTCTAACCTGTTGCAT (site TGTAGTCCTAG) | 0.156
81 | TGTAGTCCTTGGGTTCTAACCTGTTGCAT (site TGTAGTCCTAT) | 0.097
82 | TGTAGTCCTTGGGTTCTAACCTGTTGCCT (site TGTAGTCCTAA) | 0.0423
83 | TGTAGTCCTTGGGTTCTAACCTGTTGCCT (site TGTAGTCCTAC) | 0.0647
84 | TGTAGTCCTTGGGTTCTAACCTGTTGCCT (site TGTAGTCCTAG) | 0.26
85 | TGTAGTCCTTGGGTTCTAACCTGTTGCCT (site TGTAGTCCTAT) | 0.348
86 | TGTATCGCTTGGGTTCTAACCTGTTGCCT (site TGTATCGCTAG) | 0.405

Source: the supplement of paper PMC11208160
